Source: US20250171405A1, “PYRAZOLYL COMPOUNDS AS KV7 CHANNEL ACTIVATORS” (Biohaven Therapeutics Ltd., priority 2022, published 2025)

Target: T1, Kv7.2/7.3 (Homo sapiens, UniProt O43525+O43526)
T1 construct: Kv7.3 is constitutive and Kv7.2 is tetracycline-induced
Experiment: Kv7.2/7.3 Thallium Flux Assay (FluxOR II Green)
Type: cell-based
Settings: single concentration of 10 μM; fluorescence at 90 sec normalized to positive control (retigabine, 30 μM); hKv7.2/7.3 cell line
Description: The Thallium Flux Assay is used as a surrogate indicator of potassium channel activity.
The experimental protocol was adapted from the FluxOR™ II Green Potassium Ion Channel Assay User Guide (Pub. No. MAN0016084, Invitrogen). Conditions were optimized for the Kv7.2/7.3 cell line.
Cell Line: The hKV7.2/7.3 cell line was obtained from Chantest (cat. #CT6147).
Cell Culture: Kv7.2/7.3 cells were maintained in a media containing DMEM/F12; 50/50 (Fisher 11-330), 10% Fetal Bovine Serum (FBS) (Fisher 26-140), 100 units/mL Penicillin-Streptomycin (Fisher 15-140), 0.005 mg/ml Blasticidin (InvivoGen ant-bl-1), 0.5 mg/mL Geneticin (InvivoGen ant-gn-5), and 0.1 mg/mL Zeocin (Fisher R25001). One day prior to experimentation, cells were plated in 96 well clear bottom plates (Corning cat. #353219) in a media without Blasticidin, Geneticin, or Zeocin. In this cell line Kv7.3 channel expression is controlled by a constitutive promoter. Kv7.2 channel expression was induced by adding tetracycline (Sigma T7660) at a final concentration of 10 ng/mL overnight in a cell culture incubator at 37° C. and 5% CO2. On the day of assay, the cell culture medium in the 96-well plates was replaced by assay buffer containing the thallium-sensitive fluorescent sensor, FluxOR II Green prepared according to manufacturer's instructions. The 96-well plates were then incubated for 1 h at 37° C. Following the incubation, the FluxOR II Green-containing solution was replaced with extracellular solution.
Test Compound Plates: The test compound is diluted in a mixture of 0.1% DMSO/extracellular solution at a single concentration of 10 μM. Dilutions were made on a Biomek NXP (BECKMAN COULTER). Extracellular solution contained (in mM: 145 NaCl, 4 KCl, 2 CaCl2), 1 MgCl2, 10 HEPES, and 10 Glucose, pH 7.4)
Measurement and data analysis: Thallium-flux-mediated changes in intracellular fluorescence were made using a plate reader (Enspire, Perkin Elmer) set with an excitation wavelength of 475 nm and an emission wavelength of 530 nm. After a 15 sec baseline measurement, the stimulus buffer containing thallium and potassium was added to the 96-well plate containing FluxOR II Green-loaded cells and test compounds. Fluorescence values at 90 sec were normalized to the positive control (retigabine, 30 μM) and test compound activities were assigned categories according to the formula: “No Activity <0.15, “+” Moderate Activity 0.15-0.7, and “++” High Activity >0.7.

O=C(Nc1n[nH]c(-c2ccc(Cl)s2)c1C1CCC1)C1CC(F)(F)C1 [Compound 2, N-(5-(5-chlorothiophen-2-yl)-4-cyclobutyl-1H-pyrazol-3-yl)-3,3-difluorocyclobutane-1-carboxamide]
Kv7.2/7.3 Activity: ++ (“++” High Activity ≥0.7)

O=C(CC1CC(F)(F)C1)Nc1n[nH]c(-c2ccc(F)cc2)c1C1CCC1 [Compound 1, N-(4-cyclobutyl-5-(4-fluorophenyl)-1H-pyrazol-3-yl)-2-(3,3-difluorocyclobutyl)acetamide]
Kv7.2/7.3 Activity: ++ (“++” High Activity ≥0.7)

O=C(Nc1n[nH]c(-c2ccc(Cl)s2)c1C1CCC1)C1CC(C(F)(F)F)C1 (stereo not shown) [Compound 4, N-(5-(5-chlorothiophen-2-yl)-4-cyclobutyl-1H-pyrazol-3-yl)-3-(trifluoromethyl)cyclobutane-1-carboxamide]
Kv7.2/7.3 Activity: ++ (“++” High Activity ≥0.7)

O=C(Nc1n[nH]c(-c2ccc(F)cc2)c1C1CCC1)C1CC(F)(F)C1 [Compound 6, N-(4-cyclobutyl-5-(4-fluorophenyl)-1H-pyrazol-3-yl)-3,3-difluorocyclobutane-1-carboxamide]
Kv7.2/7.3 Activity: ++ (“++” High Activity ≥0.7)

O=C(Nc1[nH]nc(C2CC(F)(F)C2)c1C1CCC1)OC1CC(F)(F)C1 [Compound 7, 3,3-difluorocyclobutyl (4-cyclobutyl-3-(3,3-difluorocyclobutyl)-1H-pyrazol-5-yl)carbamate]
Kv7.2/7.3 Activity: ++ (“++” High Activity ≥0.7)

C[C@@H](C(=O)Nc1n[nH]c(-c2ccc(Cl)s2)c1C1CCC1)C1(C(F)(F)F)CC1 (stereo in doubt) [Compound 5, N-(5-(5-chlorothiophen-2-yl)-4-cyclobutyl-1H-pyrazol-3-yl)-2-(1-(trifluoromethyl)cyclopropyl)propanamide]
Kv7.2/7.3 Activity: + (“+” Moderate Activity 0.15-0.7)

O=C(Nc1n[nH]c(-c2ccc(Cl)s2)c1C1CCC1)C1CSC1 [Compound 3, N-(5-(5-chlorothiophen-2-yl)-4-cyclobutyl-1H-pyrazol-3-yl)thietane-3-carboxamide]
Kv7.2/7.3 Activity: − (“−” No Activity <0.15)
